Results reported in US20170336420A1, “METHODS AND KITS FOR TREATING CARDIOVASCULAR DISEASES” (RAPPAPORT FAMILY INSTITUTE FOR RESEARCH IN THE MEDICAL …, priority 2014, published 2017).
Where two headings read alike, the source gives them in different places.

Tests used:
[1] = patients who had a recent acute coronary syndrome; cited from earlier work
[2] = a little more than a year of treatment; cited from earlier work
HDL [3] = conditions: Hp 2-2 DM individuals; three independent studies; cited from earlier work
[4] = Hp 2-2 genotype individuals with diabetes mellitus; cited from earlier work
AIM HIGH participants [5] = test: AIM-HIGH randomized double blind clinical trial, primary composite endpoint of CVD events, also segregated by Hp type; type: in vivo, human; conditions: DM participants
From the text: AIM-HIGH (clinicaltrials.gov NCT00120289) was a randomized double blind clinical trial which set out to test the HDL hypothesis—that raising HDL would reduce CVD events. This hypothesis was based on epidemiological data showing that individuals with higher HDL had lower CVD. AIM-HIGH set out to raise HDL via the drug niacin. […] All participants received simvastatin. The primary endpoint was the first event of the composite of death from coronary heart disease, nonfatal myocardial infarction, ischemic stroke, hospitalization for an acute coronary syndrome, or symptom driven coronary or cerebral revascularization.
Hp typing was performed by the inventors using polyacrylamide gel electrophoresis. Data on Hp typing was returned to the AIM HIGH coordinating center which provided the event rates in these participants segregated by Hp type and treatment (monotherapy with statins only or combination therapy with statins plus niacin).

ApoB depleted serum = tested on: ApoB depleted serum
Description: (§1) This AIM HIGH substudy was approved by the AIM HIGH steering committee and was designed to investigate whether the Hp phenotype influenced HDL functional metrics in DM participants in AIM HIGH. All 1140 DM participants in AIM HIGH were subjected to Hp phenotyping. Functional HDL metrics (RCT and antioxidant function) was evaluated at baseline and at one year of treatment in 70 Hp 1-1 and 70 Hp 2-2 DM individuals with half in the niacin and half in the placebo group. In 20 Hp 1-1 and 20 Hp 2-2 DM individuals the amount of Hb associated with the HDL at baseline was measured. Individuals performing all functional assays were blinded to treatment assignment of all samples used for this study.
(§2) The amount of total oxidation and HDL anti-oxidant function were assessed in apolipoprotein (apo)-B depleted serum using the fluorescent and oxidation-sensitive agent dihydrorhodamine 123 (DHR). Apo-B depleted serum was prepared using polyethylene glycol (PEG) as previously described in Asztalos BF, de la Llera-Moya M, Dallal G E, Horvath K V, Schaefer E J, Rothblat G H. Differential effects of HDL subpopulations on cellular ABCA1- and SR-BI-mediated cholesterol efflux. J Lipid Res. 2005; 46:2246-2253
(§3) Briefly-serum samples were treated with PEG solution to precipitate apoB-containing lipoproteins by adding 40 parts PEG solution (20% PEG in 200 mM glycine buffer, pH 7.4) to 100 parts serum. After a 20 min incubation, the precipitate was removed by high-speed centrifugation (10,000 rpm, 30 min, 4° C.) to obtain the PEG supernatant containing the HDL lipoprotein fraction.
(§4) Duplicates of 20 μl of apo-B-depleted serum were transferred to clear-bottom 96-well plates, and 180 μl of iron-free Hepes-buffered saline (HBS) containing 50 μM DHR was then added. Immediately after the addition of DHR, the kinetics of fluorescence increase was followed in a BMG Galaxy Fluostar microplate reader at 37° C. with a 485/538 nm excitation/emission filter pair with repeated readings every 2 minutes up to 40 minutes. Total oxidation was calculated as the rate of DHR oxidation (fluorescent units (FU)/min) for each duplicate after subtracting the rate of DHR oxidation observed using the same conditions but in the absence of serum.

[6] = all participants; increased from mean of 35 mg/dl; cited from earlier work
AIM HIGH participants [7] = conditions: cited from earlier work
[8] = for HDL Y1 (mean) / LDL Y1 (mean) / TG Y1 (mean): year 1
From the text: AIM-HIGH (clinicaltrials.gov NCT00120289) was a randomized double blind clinical trial which set out to test the HDL hypothesis—that raising HDL would reduce CVD events. This hypothesis was based on epidemiological data showing that individuals with higher HDL had lower CVD. AIM-HIGH set out to raise HDL via the drug niacin. The 3414 participants in AIM HIGH were randomly assigned to receive extended release niacin […] vs placebo. All participants received simvastatin. The primary endpoint was the first event of the composite of death from coronary heart disease, nonfatal myocardial infarction, ischemic stroke, hospitalization for an acute coronary syndrome, or symptom driven coronary or cerebral revascularization.
70 Hp 1-1 and 70 Hp 2-2 DM AIM HIGH participants, with half in the niacin and half in the placebo group, were randomly selected by the AIM HIGH coordinating center for analysis for HDL metrics at baseline and one year into the study.

HDL [9] = tested on: HDL
Description: as §1, §2, §3, §4
HDL anti-oxidation function represents a fraction of the total oxidation prevented by HDL (in which case HDL is behaving as an antioxidant) or provoked by HDL (in which case HDL is behaving as a pro-oxidant) within each sample. To calculate HDL anti-oxidant function, HDL was depleted by immunoprecipitation from apo-B-depleted serum using anti-human apoA1 antibody and protein A/G Sepharose, before duplicates of corrected volumes of remnant apo-B- and Apo-A-depleted serum were transferred to 96-well plates and the rate of DHR oxidation measured in the identical manner and in parallel with the measurement of total oxidation as described above.

[10] = tested on: Murine macrophage J774 cells; conditions: Hp 1-1 group, baseline vs 1 year on niacin
Description: Serum induced reverse cholesterol transport function and HDL antioxidant function were measured in 70 Hp 1-1 and 70 Hp 2-2 participants from the AIM HIGH study at baseline and at one year after randomization to placebo or niacin.
as §1, with “Individuals performing all functional assays were blinded to treatment assignment of all samples used for this study.” left out
Measurement of HDL efflux capacity was performed as previously described. […] Liquid scintillation counting was then determined in 500 μl of the medium collected from each well as well as in the cells after washing the cells twice with PBS and lysing them in 0.1 N NaOH. Cholesterol efflux capacity was determined as the percentage efflux of total counts per minute in the medium divided by the total counts per minute in the medium and in the cells and after subtraction of the nonspecific efflux obtained in cells incubated in the absence of serum.

[11] = Hp 1-1 niacin group, at one year vs baseline
[12] = Hp 2-2 niacin group, at one year vs baseline

In the case of `CCC(CC)CC1(C(=O)Nc2ccccc2SC(=O)C(C)C)CCCCC1` [Dalcetrapib®, S-[2-({[1-(2-ethylbutyl)cyclohexyl]carbonyl}amino)phenyl] 2-methylpropanethioate], the “HDL cholesterol levels (in words)” value [1] is given as “increase HDL cholesterol levels” and the “risk of recurrent cardiovascular events (in words)” value [1] is given as “did not reduce the risk of recurrent cardiovascular events”.
In the case of `CC(C)c1c(C(=O)Nc2ccccc2)c(-c2ccccc2)c(-c2ccc(F)cc2)n1CC[C@@H](O)C[C@@H](O)CC(=O)O` [Atorvastatin®, Atorvastatin], the deaths [2] is listed as 51.
For vitamin E, the “RCT function (in words)” value (HDL [3]) is listed as “restore and significantly improve RCT function” and the “risk for cardiovascular diseases (in words)” value [4] is listed as “reduces the risk for cardiovascular diseases”.
In the case of `CCC(C)(C)C(=O)O[C@H]1C[C@@H](C)C=C2C=C[C@H](C)[C@H](CC[C@@H]3C[C@@H](O)CC(=O)O3)[C@H]21` [Simvastatin], the “% Primary Event, % of N in this category” value (AIM HIGH participants [5]; HP1-1) is reported as “(24.0%)”, the “Event Rate” value (AIM HIGH participants [5]; HP1-1) is reported as 0.0803 and the “N Primary Event” value (AIM HIGH participants [5]; HP1-1) is reported as 23. For the same compound, the “% Primary Event, % of N in this category” value (AIM HIGH participants [5]; HP2-1) was “(17.9%)”, the “Event Rate” value (AIM HIGH participants [5]; HP2-1) was 0.0582 and the “N Primary Event” value (AIM HIGH participants [5]; HP2-1) was 46. The “% Primary Event, % of N in this category” value (AIM HIGH participants [5]; HP2-2) was “(16.3%)”, the “Event Rate” value (AIM HIGH participants [5]; HP2-2) was 0.0532 and the “N Primary Event” value (AIM HIGH participants [5]; HP2-2) was 33.
For `O=C(O)c1cccnc1` [niacin, pyridine-3-carboxylic acid], the “change in total oxidation (in words)” value (ApoB depleted serum; Hp 1-1 individuals) was “significant decrease”, the “total oxidation decreased by” value (ApoB depleted serum; [11]) was 19.1±3.4 oxidation units and the “change in total oxidation (in words)” value (ApoB depleted serum; Hp 2-2 individuals) was “significant increase in total oxidation”. For the same compound, the “total oxidation increased by” value (ApoB depleted serum; [12]) was 13.4±5.0 oxidation units, the “HDL, mean on treatment” value [6] was 42 mg/dL and the “primary endpoint occurred in patients” value (AIM HIGH participants [7]; all 3414 participants, extended release niacin 1500-2000 g/day, all received simvastatin, mean follow up 3 years) was 282 patients. For the same compound, the “primary endpoint, % of group” value (AIM HIGH participants [7]; all participants, niacin group, all received simvastatin, mean follow up 3 years) was 16.4%, the “HR for primary endpoint” value (AIM HIGH participants [7]; niacin group vs placebo group, all participants) was 1.02 and the “HDL Y1 (mean)” value ([8]; Hp 11 niacin group, HDL base 33.91) was 40.94. For the same compound, the “LDL Y1 (mean)” value ([8]; Hp 11 niacin group, LDL base 81.18) was 67.71, the “TG Y1 (mean)” value ([8]; Hp 11 niacin group, TG base 193.12) was 174.97 and the “HDL Y1 (mean)” value ([8]; Hp 22 niacin group, HDL base 33.74) was 43.29. The “LDL Y1 (mean)” value ([8]; Hp 22 niacin group, LDL base 65.91) was 64.15, the “TG Y1 (mean)” value ([8]; Hp 22 niacin group, TG base 211.88) was 164.50 and the “HDL mass (in words)” value ([8]; both Hp 1-1 and Hp 2-2 DM individuals) was “significant increase in HDL mass”. For the same compound, the “change in HDL antioxidant function (in words)” value (HDL [9]; Hp 1-1 individuals) was “improved”, the “change in HDL antioxidant function (in words)” value (HDL [9]; Hp 1-1 individuals, listed as Niacin) was “increase in HDL antioxidant function” and the “HDL antioxidant function increased by” value (HDL [9]; [11]) was 10.8±2.3 units. The “change in HDL antioxidant function (in words)” value (HDL [9]; Hp 2-2 individuals) was “worsened”, the “change in HDL antioxidant function (in words)” value (HDL [9]; Hp 2-2 individuals, listed as Niacin) was “significant decline in the antioxidant function” and the “HDL antioxidant function decreased by” value (HDL [9]; [12]) was 8.3±2.9 units. The “increase in median efflux” value [10] was 14%.
